Experimental data published in patent publication US9724347B2, “1-pyrazolyl-3-(4-((2-anilinopyrimidin-4-yl)oxy)napththalen-1-yl) ureas as P38 MAP knase inhibitors” (Respivert Ltd., priority 2011, dated 2017).
Marks after values point to notes of the source that are not given here.

Columns and labels:
PBMC cells = experiment: Cell mitosis assay; format: cell-based, human
Protocol: Peripheral blood mononucleocytes (PBMCs) from healthy subjects were separated from whole blood (Quintiles, London, UK) using a density gradient (Histopaque®-1077, Sigma-Aldrich, Poole, UK). The PBMCs (3 million cells per sample) were subsequently treated with 2% PHA (Sigma-Aldrich, Poole, UK) for 48 hr, followed by a 20 hr exposure to varying concentrations of test compounds. At 2 hr before collection, PBMCs were treated with demecolcine (0.1 μg/mL; Invitrogen, Paisley, UK,) to arrest cells in metaphase. To observe mitotic cells, PBMCs were permeabilised and fixed by adding Intraprep (50 μL; Beckman Coulter, France), and stained with anti-phospho-histone 3 ([…]; #9701; Cell Signalling, Danvers, Mass.) and propidium iodide (1 mg/mL; Sigma-Aldrich, Poole, UK,) as previously described (Muehlbauer P. A. and Schuler M. J., Mutation Research, 2003, 537:117-130). Fluorescence was observed using an ATTUNE flow cytometer (Invitrogen, Paisley, UK), gating for lymphocytes.

d-U937 cells = experiment: Cell viability: MTT assay; format: cell-based, human; details: 1 μg/mL
Summary of the method: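 Differentiated U937 cells exposed to compound at 1 or 10 μg/mL final, either 4 h in 5% FCS RPMI1640 or 24 h in 10% FCS RPMI1640. After medium replacement, MTT added 1 h, formazan dissolved in DMSO, A550 read. % viability loss vs 0.5% DMSO vehicle; apparent viability gain shown as negative %.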

p38MAPKγ (MAPK12) = p38MAPKγ (MAPK12) (Homo sapiens (Human), UniProt P53778); experiment: p38 MAPKγ enzyme inhibition (FRET, Z-LYTE); format: biochemical
Summary of the method: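 Z-LYTE FRET kinase format on donor/acceptor-labeled synthetic peptide; protease development 1 hr cleaves only non-phosphorylated peptide. Phosphorylation derived from coumarin/fluorescein emission ratio, low ratio indicating high phosphorylation.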

[1] = tested on: ICAM-1 expression in BEAS2B cells; experiment: Poly I:C-induced ICAM-1 expression in BEAS2B cells; format: cell-based, human; details: Homo sapiens, BEAS-2B, read-out: PolyIC/ICAM1 IC50 (BEAS2B)
Summary of the method: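 BEAS2B human bronchial epithelial cells pre-incubated 2 h with compound, then transfected with 1 μg/mL poly I:C plus Oligofectamine. After 18 h, surface ICAM-1 measured by cell-based ELISA (OD450–655), normalised to crystal violet cell count (OD595). Inhibition calculated against vehicle control.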

[2] = molecular target: p38 MAPKα isoform (MAPK14) (Homo sapiens (Human), UniProt Q16539); experiment: p38 MAPKα enzyme inhibition (FRET, Z-LYTE); format: biochemical
GSK 3α enzyme isoform = GSK 3α enzyme isoform (Homo sapiens (Human), UniProt P49840); experiment: GSK 3α enzyme inhibition (FRET, Z-LYTE); format: biochemical; details: read-out: IC50 Values for Enzyme Inhibition GSK3α
Summary of the method: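 Human GSK3α (500 ng/mL stock) was preincubated 2 h at RT with compound (stocks 4, 0.4, 0.04 or 0.004 μg/mL), then given FRET peptide (8 μM stock) and ATP (40 μM stock) for 1 h. After 1 h protease development, the coumarin/fluorescein emission ratio gave phosphorylation level.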

HRV16 = HRV16 induced CPE in MRC5 cells; format: cell-based, human rhinovirus; details: tested at 0.0008 μg/mL, low cell viability at 0.04 μg/mL
Protocol: The supernatants were aspirated, and then fresh media added followed by incubation for 4 days. Where appropriate, cells were pre-incubated with compound or DMSO for 2 hr, and the compounds and DMSO added again after washout of the virus.
The percentage inhibition for each well was calculated. The IC50 value was calculated from the concentration-response curve generated by the serial dilutions of the test compounds.

Chain of GSK 3α enzyme isoform (P49840 whole entry, canonical isoform): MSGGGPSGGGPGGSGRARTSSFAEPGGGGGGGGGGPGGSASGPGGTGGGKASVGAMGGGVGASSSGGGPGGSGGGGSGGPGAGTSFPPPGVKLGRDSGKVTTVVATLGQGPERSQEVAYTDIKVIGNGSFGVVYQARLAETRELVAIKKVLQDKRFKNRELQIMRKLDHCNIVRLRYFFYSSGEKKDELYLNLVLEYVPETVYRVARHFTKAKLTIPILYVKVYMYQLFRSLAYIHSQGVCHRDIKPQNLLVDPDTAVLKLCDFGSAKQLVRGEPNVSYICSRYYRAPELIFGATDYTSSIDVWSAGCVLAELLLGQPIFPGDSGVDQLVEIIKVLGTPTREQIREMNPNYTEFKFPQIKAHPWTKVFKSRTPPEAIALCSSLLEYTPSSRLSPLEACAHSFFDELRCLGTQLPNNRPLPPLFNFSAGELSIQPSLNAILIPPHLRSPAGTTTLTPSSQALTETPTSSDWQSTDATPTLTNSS
Chain of p38MAPKγ (MAPK12) (P53778 whole entry): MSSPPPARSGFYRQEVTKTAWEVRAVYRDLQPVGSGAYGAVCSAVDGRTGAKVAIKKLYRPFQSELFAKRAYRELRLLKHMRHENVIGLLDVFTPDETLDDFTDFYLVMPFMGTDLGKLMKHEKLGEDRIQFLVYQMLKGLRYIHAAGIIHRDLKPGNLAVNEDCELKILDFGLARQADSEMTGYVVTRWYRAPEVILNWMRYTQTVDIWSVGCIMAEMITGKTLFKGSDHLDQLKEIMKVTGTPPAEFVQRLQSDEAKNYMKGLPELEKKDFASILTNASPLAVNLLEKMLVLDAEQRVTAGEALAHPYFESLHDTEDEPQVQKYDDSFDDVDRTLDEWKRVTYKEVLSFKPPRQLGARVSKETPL
Chain of p38 MAPKα isoform (MAPK14) (Q16539 whole entry, canonical isoform): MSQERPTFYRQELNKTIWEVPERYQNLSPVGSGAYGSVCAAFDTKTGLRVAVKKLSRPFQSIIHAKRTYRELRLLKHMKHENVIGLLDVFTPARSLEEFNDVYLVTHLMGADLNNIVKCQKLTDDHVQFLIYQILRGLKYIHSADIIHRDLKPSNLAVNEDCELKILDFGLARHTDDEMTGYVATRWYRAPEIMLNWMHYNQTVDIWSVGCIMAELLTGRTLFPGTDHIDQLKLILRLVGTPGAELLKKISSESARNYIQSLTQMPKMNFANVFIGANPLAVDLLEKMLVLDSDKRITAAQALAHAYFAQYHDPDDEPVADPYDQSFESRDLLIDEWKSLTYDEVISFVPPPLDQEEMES

SMILES | Mitosis Assay % inhibition in PBMC Cells (PBMC cells; 5 μg/mL) [%] | MTT Assay Cell viability at time point in d-U937 Cells (d-U937 cells; 4 h) | MTT Assay Cell viability at time point in d-U937 Cells (d-U937 cells; 24 h) | IC50 (p38MAPKγ (MAPK12)) [nM] | IC50 [1] [nM] | IC50 [2] [nM] | IC50 (GSK 3α enzyme isoform) [nM] | Mitosis Assay % inhibition in PBMC Cells (PBMC cells; 1 μg/mL) [%] | HRV CPE (MRC5) % inhibition (HRV16) [%*]
Cc1ccc(-n2nc(C(C)(C)C)cc2NC(=O)Nc2ccc(Oc3ccnc(Nc4cccc(O)c4)n3)c3ccccc23)cc1 [Example 2, 1-(3-(tert-Butyl)-1-(p-tolyl)-1H-pyrazol-5-yl)-3-(4-((2-((3-hydroxyphenyl)amino)pyrimidin-4-yl)oxy)naphthalen-1-yl)urea] | 70.6 | −ve (−ve and +ve indicate the value is below and above respectively, the no significant effect threshold defined as 30% inhibition at 1 μg/mL at the time point indicated) | −ve (−ve and +ve indicate the value is below and above respectively, the no significant effect threshold defined as 30% inhibition at 1 μg/mL at the time point indicated) | 557 |  |  |  |  | 
COc1ccc(-n2nc(C(C)(C)C)cc2NC(=O)Nc2ccc(Oc3ccnc(Nc4ccccc4)n3)c3ccccc23)cc1 [Example 7, 1-(3-(tert-butyl)-1-(4-methoxyphenyl)-1H-pyrazol-5-yl)-3-(4-((2-(phenylamino)pyrimidin-4-yl)oxy)naphthalen-1-yl)urea] | 10.2 | −ve (−ve and +ve indicate the value is below and above respectively, the no significant effect threshold defined as 30% inhibition at 1 μg/mL at the time point indicated) | −ve (−ve and +ve indicate the value is below and above respectively, the no significant effect threshold defined as 30% inhibition at 1 μg/mL at the time point indicated) | 1700 | 23 | 170 | 3500 |  | 
COc1ccc(Nc2nccc(Oc3ccc(NC(=O)Nc4cc(C(C)(C)C)nn4-c4ccc(C)cc4)c4ccccc34)n2)c(OC)c1 [Example 8, 1-(3-(tert-butyl)-1-(p-tolyl)-1H-pyrazol-5-yl)-3-(4-((2-((2,4-dimethoxyphenyl)amino)pyrimidin-4-yl)oxy)naphthalen-1-yl)urea] |  | −ve (−ve and +ve indicate the value is below and above respectively, the no significant effect threshold defined as 30% inhibition at 1 μg/mL at the time point indicated) | −ve (−ve and +ve indicate the value is below and above respectively, the no significant effect threshold defined as 30% inhibition at 1 μg/mL at the time point indicated) | > 15500 | 22 | 151 | > 15500 | 15.6 | 
Cc1ccc(-n2nc(C(C)(C)C)cc2NC(=O)Nc2ccc(Oc3ccnc(Nc4ccc(O)cc4)n3)c3ccccc23)cc1 [Example 9, 1-(3-(tert-butyl)-1-(p-tolyl)-1H-pyrazol-5-yl)-3-(4-((2-((4-hydroxyphenyl)amino)pyrimidin-4-yl)oxy)naphthalen-1-yl)urea] | 50.3 | −ve (−ve and +ve indicate the value is below and above respectively, the no significant effect threshold defined as 30% inhibition at 1 μg/mL at the time point indicated) | −ve (−ve and +ve indicate the value is below and above respectively, the no significant effect threshold defined as 30% inhibition at 1 μg/mL at the time point indicated) | 760 |  | 171 | 3260 |  | 
CCOc1ccc(Nc2nccc(Oc3ccc(NC(=O)Nc4cc(C(C)(C)C)nn4-c4ccc(C)cc4)c4ccccc34)n2)cc1 [Example 22, 1-(3-(tert-butyl)-1-(p-tolyl)-1H-pyrazol-5-yl)-3-(4-((2-((4-ethoxyphenyl)amino)pyrimidin-4-yl)oxy)naphthalen-1-yl)urea] | 70.8 | −ve (−ve and +ve indicate the value is below and above respectively, the no significant effect threshold defined as 30% inhibition at 1 μg/mL at the time point indicated) | −ve (−ve and +ve indicate the value is below and above respectively, the no significant effect threshold defined as 30% inhibition at 1 μg/mL at the time point indicated) | > 1590 | 13 | 281 | > 1590 |  | 
COc1cc(Nc2nccc(Oc3ccc(NC(=O)Nc4cc(C(C)(C)C)nn4-c4ccc(C)cc4)c4ccccc34)n2)ccc1O [Example 25, 1-(3-(tert-butyl)-1-(p-tolyl)-1H-pyrazol-5-yl)-3-(4-((2-((4-hydroxy-3-methoxyphenyl)amino)pyrimidin-4-yl)oxy)naphthalen-1-yl)urea] | 63.5 | −ve (−ve and +ve indicate the value is below and above respectively, the no significant effect threshold defined as 30% inhibition at 1 μg/mL at the time point indicated) | −ve (−ve and +ve indicate the value is below and above respectively, the no significant effect threshold defined as 30% inhibition at 1 μg/mL at the time point indicated) | 281 | 2.5 | 77 | > 1590 | 29.1 | 33
COc1ccc(Nc2nccc(Oc3ccc(NC(=O)Nc4cc(C(C)(C)C)nn4-c4ccc(C)cc4)c4ccccc34)n2)cc1OC [Example 27, 1-(3-(tert-butyl)-1-(p-tolyl)-1H-pyrazol-5-yl)-3-(4-((2-((3,4-dimethoxyphenyl)amino)pyrimidin-4-yl)oxy)naphthalen-1-yl)urea] | 11.2 | +ve (−ve and +ve indicate the value is below and above respectively, the no significant effect threshold defined as 30% inhibition at 1 μg/mL at the time point indicated) | −ve (−ve and +ve indicate the value is below and above respectively, the no significant effect threshold defined as 30% inhibition at 1 μg/mL at the time point indicated) | 535 | 1.6 | 105 | 2110 |  | 
Cc1ccc(-n2nc(C(C)(C)C)cc2NC(=O)Nc2ccc(Oc3ccnc(Nc4ccc(O)cc4O)n3)c3ccccc23)cc1 [Example 32, 1-(3-(tert-butyl)-1-(p-tolyl)-1H-pyrazol-5-yl)-3-(4-((2-((2,4-dihydroxyphenyl)amino)pyrimidin-4-yl)oxy)naphthalen-1-yl)urea] | 33.0 | −ve (−ve and +ve indicate the value is below and above respectively, the no significant effect threshold defined as 30% inhibition at 1 μg/mL at the time point indicated) | −ve (−ve and +ve indicate the value is below and above respectively, the no significant effect threshold defined as 30% inhibition at 1 μg/mL at the time point indicated) | > 1620 | 21 | 189 | > 1620 |  | 
COc1ccc(-n2nc(C(C)(C)C)cc2NC(=O)Nc2ccc(Oc3ccnc(Nc4ccc(O)cc4)n3)c3ccccc23)cc1 [Example 33, 1-(3-(tert-butyl)-1-(4-methoxyphenyl)-1H-pyrazol-5-yl)-3-(4-((2-((4-hydroxyphenyl)amino)pyrimidin-4-yl)oxy)naphthalen-1-yl)urea] | 67.2 | −ve (−ve and +ve indicate the value is below and above respectively, the no significant effect threshold defined as 30% inhibition at 1 μg/mL at the time point indicated) | −ve (−ve and +ve indicate the value is below and above respectively, the no significant effect threshold defined as 30% inhibition at 1 μg/mL at the time point indicated) | 264 | 2.6 | 60 | 2380 |  | 
